Patent US20250049924A1, “Abuse-Deterrent Pharmaceutical Composition with Aversion Properties” (AARDVARK THERAPEUTICS INC., priority 2022, published 2025)

Key:
[1] = systemic (intravenous) administration of DA, NOAEL; format: in vivo; conditions: systemic administration (i.e., intravenous administration)
[2] = tested on: bitter taste receptors in the oral cavity, including the tongue; assay: volunteer snorting experiment with DA in saline (granules or neat powder); format: in vivo, human
Procedure: One brave co-inventor attempted to “snort” a formulation of DA in either a granule form having talc as an excipient as DA is provided in clinical trials (Aardvark Therapeutics, Inc phase 1 and 2 studies for obesity) for oral administration in a capsule designed to prevent DA material from exposure to bitter taste receptors in the oral cavity, including the tongue. In a first round of “dose escalation” of a saline having DA in granules starting around […] of DA (wherein a granule weighs about 0.1 mg including the talc based excipients) in the volume of liquid snorted, it took a dose of around 0.1 mg DA (10 granules). The three attempts were 1 granule, 5 granules and lastly 10 granules. […] This sensation peaked around 15-20 min, and lasted about an hour. Was certainly annoying and not pleasant.
In view of the results with a granule formulation of DA, the day before filing this patent application, the co-inventor volunteer tried the snorting experiment again, but this time, using neat DA that was a powder dissolved in saline. Just one “snort” was attempted of 1 mg of DA in saline. It should be noted that the completed clinical trials of DA used a dose of 200 mg of DA taken orally in a capsule that dissolves in the stomach, avoiding mouth exposure. The report from our volunteer indicated: “Just snorted 1.0 mg of ARD-101 [DA] API [active pharmaceutical ingredient] . . . OMG.
So terrible. […] Like with the granules, there is no immediate aversive sensation. Maybe around minute 7-8 after snorting dose, the bitterness became apparent, with peak effect starting around minute 10-15. […] Drinking water almost makes it worse!
It's been over 30 min since the snorting and the bitterness has hardly diminished. If I ate breakfast, I might have vomited already.
A later text read: “It's been almost 6 hours and I still taste it. Bleh.”

[3] = systemic exposure of DA after oral administration (completed clinical trials and preclinical studies)
From the text: This is in contrast to a controlled substance, such as an amphetamine, which is known to provide a bolus dose to the brain to provider a “high” experience for the drug abuser. This allows a drug abuser, snorting the disclosed formulation to experience a bolus dose of the controlled substance for a “high” while simultaneously, or shortly thereafter, experience a disgusting, revolting, vomit-inducing, sickening (but not life-threatening) massively unpleasant experience from the aversive agent, such as DA.
DB is commercially available but has not been developed for pharmaceutical use. However, DA has been used as an active pharmaceutical agent as a bitter receptor agonist, not as an aversive, in formulations that avoid oral cavity exposure.

rats = assay: animal toxicology studies, DA orally by gavage, behaviour; format: in vivo; conditions: oral gavage by less skilled technicians
[4] = DA granules in saline, around 0.1 mg DA (10 granules)
[5] = neat DA powder dissolved in saline, 1 mg, one snort

CC(=O)[O-].CC[N+](CC)(CC(=O)Nc1c(C)cccc1C)Cc1ccccc1 [DA, Denatonium acetate]
NOAEL (no adverse effect level) [1]: high | dose of DA that it took for an effect in dose escalation ([2]; DA granules (talc excipient) in saline, snorted, attempts of 1, 5 and 10 granules): about 0.1 mg | duration of sensation [2, 4]: about an hour | nausea or vomiting [2, 4]: did not elicit nausea or vomiting | sensation after snorting [2, 4]: extremely bitter taste in the back of my throat and posterior portion of my tongue | time of peak of sensation [2, 4]: 15 to 20 min | time to noticing the bitter taste [2, 4]: ≤ 10 min | effect compared with the granules ([2]; neat DA 1 mg versus granules snorted before): significantly and measurably more disgusting | deterrence of snorting, volunteer's judgement ([2]; neat DA powder dissolved in saline, 1 mg): measurable deterrent to snorting | sensation after snorting [2, 5]: extreme bitterness in the back of the throat and the posterior tongue | start of peak effect [2, 5]: 10 to 15 min | time after snorting at which bitterness became apparent [2, 5]: 7 to 8 min | time after snorting at which it is still tasted [2, 5]: ~6 h | time since snorting at which bitterness has hardly diminished [2, 5]: over 30 min | part of the dose administered found systemically ([3]; oral administration): less than 1% | pharmacokinetics, distribution after oral exposure ([3]; oral exposure): substantially gut restricted | behavior of the animals on gavage (rats): highly aversive and desperate behavior
